Reference: patent US10514377B2, “Method of diagnosing and therapeutically treating a patient for a traumatic brain injury” (priority 2010, dated 2019)

Tested on: rats subjected to impact acceleration injury
Assay: Impact acceleration injury (traumatic brain injury) in rats, GFAP immuno-fluorescence of cortex 24 hours after injury
Type: in vivo
Conditions: rat
Source text: FIG. 3 through 5 represent respectively, representative photomicrographs of three groups of ten rats which have been subjected to the development of traumatic brain injury through impact by a weight under experimental conditions described hereinafter.
Low and high magnification micrographs of glial fibrillary acidic proteins (GFAP) immuno-fluorescence using a laser-scanning confocal microscope produced FIGS. 3 through 5. The GFAP antibody labels the intermediate filaments of most astrocytes in the brain. These photomicrographs, which were taken 24 hours after the animals were subjected to impact acceleration injury, show areas of cortex slightly lateral to the midline. The pial surface is at the top of the images and the midline is to the left of all images. In the sham animals shown in FIG. 3, a normal distribution of GFAP labeled astrocytes is seen, including their endfeet which surround the neurovasculature. […] There is also a patchy loss of GFAP-labeled astrocytes throughout the cortex and the vasculature shown by the arrow heads (as contrasted with the full arrows) appears damaged. It should also be noted that many of the remaining astrocytes appear to be hypertrophied. The loss of all GFAP-immunoreactivity and appearance of astrocyte hypertrophy are indicative of a neuroinflammatory response to injury.
In order to provide additional information regarding the invention, experiments were performed on animals who were subjected to the impact acceleration injury described hereinbefore, with the animals subsequently being sacrificed and the brains examined 24 hours after the injury. Tests were performed with body specimens which were urinary excretion and also with blood, either blood plasma or blood serum. In each group of ten animals, all had their urine tested and six had blood tested. With the sham animals, the mean urinary excretion values of marinobufagenin were 423±130 (SE)pgMBG/mg creatinine. With the impact acceleration injury rats, the mean urinary excretion values of marinobufagenin were […]. […] These tests confirm the evaluation of marinobufagenin in both urine and blood when an impact acceleration injury is present.

[1] = 120 μg bolus about 90 minutes after injury, 24 hours after injury, FIG. 5

For `C[C@]12CC[C@H](O)C[C@H]1CC[C@@H]1[C@@H]2CC[C@]2(C)[C@@H](c3ccc(=O)oc3)C[C@H]3O[C@]132` [resibufogenin], the GFAP immunoreactivity [1] was “reduce the decrease in GFAP immunoreactivity”, the “appearance of GFAP labeled astrocytes (normal vs hypertrophied)” value [1] was “a greater proportion of GFAP labeled astrocytes have a normal, rather than a hypertrophied appearance” and the “glial scar in cortex” value [1] was “no observed glial scar”. For the same compound, the “alterations after impact acceleration injury (glial scar, patchy loss of GFAP-labeled astrocytes, damaged vasculature, astrocyte hypertrophy)” value (120 μg bolus of resibufogenin about 90 minutes after injury, cortex examined 24 hours after injury, FIG. 5 vs FIG. 4) was “most of these alterations are ameliorated”.
